Measured values taken from US9926277B2, “Pyridone compounds, pharmaceutical compositions thereof, and their therapeutic use for treating proliferative diseases” (BioTheryX, Inc., priority 2015, dated 2018).

Tested on: MDA-MB-231 cells
Test: Viability of MDA-MB-231 cancer cells (CELLTITER, Example B5)
Format: cell-based
Conditions: Homo sapiens, 72 hours incubation, read-out: Cell Viability (%); for viability at 0.005 µM: Conc. 5 nM; for viability at 0.01 µM: Conc. 10 nM; for viability at 0.02 µM: Conc. 20 nM
Experimental: Compounds A1 and A3 to A6 were tested for their ability to reduce the viability of MDA-MB-231 cells, along with ciclopirox (CPX). MDA-MB-231 is a metastatic human breast cancer cell line. […] Seventy-two hours after incubation, cell viability was measured using CELLTITER® from Promega.

| Compound | viability at 0.003 µM (Conc. 3 nM) [%] | viability at 0.005 µM [%] | viability at 0.01 µM [%] | viability at 0.02 µM [%] |
| --- | --- | --- | --- | --- |
| Cc1cc(C2CCCCC2)n(O)c(=O)c1 [CPX, ciclopirox, reference compound] | 60.3 ± 2 | 43.4 ± 2.2 | 46.3 ± 11.1 | 20.9 ± 1.5 |
| Cc1cc(C2CCCCC2)n(OS(=O)(=O)c2ccccc2)c(=O)c1 [Compound A1, 6-cyclohexyl-4-methyl-2-oxopyridin-1(2H)-yl benzenesulfonate] | – | 46.8 ± 8 | 31.1 ± 5.4 | 22.1 ± 4.9 |
| Cc1cc(C2CCCCC2)n(OS(=O)(=O)c2cccs2)c(=O)c1 [Compound A6, 6-Cyclohexyl-4-methyl-2-oxopyridin-1(2H)-yl thiophene-2-sulfonate] | – | 26.7 ± 4 | 31.4 ± 8.4 | 22.1 ± 3.6 |
| Cc1cc(C2CCCCC2)n(OS(=O)(=O)c2ccc(C(C)C)cc2)c(=O)c1 [Compound A3, 6-Cyclohexyl-4-methyl-2-oxopyridin-1(2H)-yl 4-isopropylbenzenesulfonate] | – | 48.3 ± 4.9 | 34.4 ± 6.9 | 28.4 ± 1.3 |
| CCCS(=O)(=O)On1c(C2CCCCC2)cc(C)cc1=O [Compound A4, 6-Cyclohexyl-4-methyl-2-oxopyridin-1(2H)-yl propane-1-sulfonate] | – | 40.5 ± 11.4 | 32.3 ± 0.6 | 29.2 ± 1.7 |
| Cc1cc(C2CCCCC2)n(OS(=O)(=O)c2c(C(C)C)cc(C(C)C)cc2C(C)C)c(=O)c1 [Compound A5, 6-Cyclohexyl-4-methyl-2-oxopyridin-1(2H)-yl 2,4,6-triisopropylbenzenesulfonate] | – | 62.9 ± 9.6 | 50.6 ± 6.2 | 40.6 ± 7.1 |
